In patent EP4650002A1 (Ludwig-Maximilians-Universität, priority 2024, dated 2025):

Target: T1, human TLX (Homo sapiens, UniProt Q9Y466)
T1 construct: expressed in transfected cells; host or cells: HEK293T
Experiment: Gal4 hybrid reporter gene assay (TLX modulation)
Assay type: cell-based
Parameters: key to relative reporter activity: fraction of DMSO control (DMSO = 1)
Conditions: for EC50: Gal4-TLX hybrid reporter in HEK293T cells, 16 h incubation; for relative reporter activity: DMSO control = 1
Protocol: In the Tables, the TLX relative reporter activity is expressed as EC50 (in µM) for each listed compound. "EC50" refers to a measure of the concentration of a compound which induces a biological response halfway between the baseline and maximum after a specified exposure time. […] The EC50 is measured via a hybrid reporter gene assay, employing the transfection of a reporter (firefly luciferase with Gal4 response element), a control gene (Renilla luciferase), a transcriptional activator (Gal4-VP16) and a hybrid receptor consisting of the TLX ligand binding domain (LBD) and the Gal4 DNA binding domain (DBD).
Hybrid reporter gene assays. […] After 24 h, medium was changed to Opti-MEM without supplements and cells were transiently transfected using Lipofectamine LTX reagent (Invitrogen, Carlsbad, CA, USA) according to the manufacturer's protocol. Five hours after transfection, cells were incubated with the test compounds in Opti-MEM supplemented with penicillin (100 U/mL), streptomycin (100 µg/mL) and 0.1% DMSO for 16 h before luciferase activity was measured using the Dual-Glo Luciferase Assay System (Promega) according to the manufacturer's protocol on a Tecan Spark luminometer (Tecan Deutschland GmbH, Crailsheim, Germany). Firefly luminescence was divided by Renilla luminescence and multiplied by 1000 resulting in relative light units (RLU) to normalize for transfection efficiency and cell growth. Fold activation was obtained by dividing the mean RLU of test compound by the mean RLU of the untreated control. All samples were tested in at least three biologically independent experiments in duplicates. For dose-response curve fitting and calculation of EC50 values, the equation "[Agonist] vs. response -- Variable slope (four parameters)" was used in GraphPad Prism (version 7.00, GraphPad Software, La Jolla, CA, USA).

[1] = minimal remaining or maximum reporter activity after treatment, in brackets below the EC50, <1 agonism, >1 inverse agonism

T1 sequence (Q9Y466 155-383 limits assumed): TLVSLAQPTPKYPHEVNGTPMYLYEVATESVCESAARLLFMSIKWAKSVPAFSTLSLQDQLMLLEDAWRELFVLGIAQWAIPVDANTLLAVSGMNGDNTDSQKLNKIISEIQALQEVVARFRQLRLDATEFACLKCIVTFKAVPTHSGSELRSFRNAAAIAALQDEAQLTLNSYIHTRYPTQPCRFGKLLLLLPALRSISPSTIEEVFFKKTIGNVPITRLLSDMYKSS

With `Nc1cc(-c2ccn3ccnc3c2)cc(C(F)(F)F)c1` [compound 94, 3-(imidazo[1,2-a]pyridin-7-yl)-5-(trifluoromethyl)aniline] as the compound, how does the EC50 read?
Its EC50 is 3.7 ± 0.6 µM.

`CN(C)c1ccc(-c2cc(N)cc(C(F)(F)F)c2)cc1` [compound 95, N4',N4'-dimethyl-5-(trifluoromethyl)-[1,1'-biphenyl]-3,4'-diamine] was tested. Which relative reporter activity (at 20 µM) did it give?
Its relative reporter activity is “(0.41±0.11 at 20 µM)”.

For `Nc1cc(-c2ccc3c(c2)CCN3)cc(C(F)(F)F)c1` [compound 96, 3-(indolin-5-yl)-5-(trifluoromethyl)aniline], which EC50 is on record?
The EC50 was 2.3 ± 0.7 µM.

How did the EC50 turn out when `Cn1ncc2cc(-c3cc(N)cc(C(F)(F)F)c3)ccc21` [compound 97, 3-(1-methyl-1H-indazol-5-yl)-5-(trifluoromethyl)aniline] was run?
The EC50 was 1.6 ± 0.9 µM.

With `Cn1ccc2cc(-c3cc(N)cc(C(F)(F)F)c3)cnc21` [compound 98, 3-(1-methyl-1H-pyrrolo[2,3-b]pyridin-5-yl)-5-(trifluoromethyl)aniline] as the compound, how does the EC50 read?
The EC50 was 0.4 ± 0.07 µM.

What about the relative reporter activity [1] of the same compound?
Its relative reporter activity is 0.29±0.03.

How did the EC50 turn out when `Nc1cc(-c2cccc3[nH]ccc23)cc(C(F)(F)F)c1` [compound 99, 3-(1H-Indol-4-yl)-5-(trifluoromethyl)aniline] was run?
Its EC50 is 3 ± 0.2 µM.

How did the EC50 turn out when `Cn1ccc2c(-c3cc(N)cc(C(F)(F)F)c3)cccc21` [compound 100, 3-(1-Methyl-1H-indol-4-yl)-5-(trifluoromethyl)aniline] was run?
Its EC50 is 18 ± 1 µM.

What about the relative reporter activity (at 10 µM) of the same compound?
The relative reporter activity was 0.55±0.06.

Which relative reporter activity (at 30 µM) does the source give for `Cc1cn(-c2cccc(N)c2)cn1` [compound 101, 3-(4-methyl-1H-imidazol-1-yl)aniline] here?
The relative reporter activity was “inactive at 30 µM”.

For `Cc1cn(-c2cccc(NC(=O)Cc3ccccc3Cl)c2)cn1` [compound 103, 2-(2-chlorophenyl)-N-(3-(4-methyl-1H-imidazol-1-yl)phenyl)acetamide], which EC50 is on record?
The EC50 was 1.9 ± 0.5 µM.

What about the relative reporter activity [1] of the same compound?
The relative reporter activity was 0.18±0.10.

With `Cc1cc(-c2cccc(N)c2)ccn1` [compound 104, 3-(2-methylpyridin-4-yl)aniline] as the compound, how does the relative reporter activity (at 50 µM) read?
Its relative reporter activity is “(0.73±0.06 at 50 µM)”.

Which relative reporter activity (at 30 µM) does the source give for `Cn1cc(-c2cccc(N)c2)cn1` [compound 105, 3-(1-methyl-1H-pyrazol-4-yl)aniline] here?
Its relative reporter activity is “inactive at 30 µM”.

How did the relative reporter activity (at 30 µM) turn out when `Cc1cc(N)cc(-c2ccnc(C)c2)c1` [compound 106, 3-methyl-5-(2-methylpyridin-4-yl)aniline] was run?
The relative reporter activity was “(0.44±0.09 at 30 µM)”.

Which relative reporter activity (at 50 µM) does the source give for `Cc1cc(-c2cc(N)ccc2C(F)(F)F)ccn1` [compound 107, 3-(2-methylpyridin-4-yl)-4-(trifluoromethyl)aniline] here?
The relative reporter activity was “(0.39±0.04 at 50 µM)”.

How did the EC50 turn out when `COc1cc(N)cc(-c2ccnc(C)c2)c1` [compound 108, 3-methoxy-5-(2-methylpyridin-4-yl)aniline] was run?
Its EC50 is 15 ± 4 µM.

Which EC50 does the source give for `Cc1cc(-c2cc(N)cc(C#N)c2)ccn1` [compound 109, 3-amino-5-(2-methylpyridin-4-yl)benzonitrile] here?
Its EC50 is 5.9 ± 2.2 µM.

And the relative reporter activity [1]?
Its relative reporter activity is 0.40±0.11.

How did the EC50 turn out when `Cc1cc(-c2cc(N)ccc2OC(F)(F)F)ccn1` [compound 110, 3-(2-methylpyridin-4-yl)-4-(trifluoromethoxy)aniline] was run?
Its EC50 is 16 ± 10 µM.

What about the relative reporter activity [1] of the same compound?
Its relative reporter activity is 0.34±0.09.

With `Cc1cc(-c2cc(N)cc(Cl)c2)ccn1` [compound 111, 3-chloro-5-(2-methylpyridin-4-yl)aniline] as the compound, how does the EC50 read?
Its EC50 is 10 ± 7 µM.

For `CC(=O)c1ccc(-c2ccnc(C)c2)cc1N` [compound 112, 1-(2-amino-4-(2-methylpyridin-4-yl)phenyl)ethan-1-one], which EC50 is on record?
Its EC50 is 18 ± 10 µM.

And the relative reporter activity [1]?
Its relative reporter activity is 0.58±0.09.

`Cc1cc(-c2cc(N)cc(OC(F)(F)F)c2)ccn1` [compound 113, 3-(2-methylpyridin-4-yl)-5-(trifluoromethoxy)aniline] was tested. Which EC50 did it give?
Its EC50 is 13.6 ± 0.6 µM.

How did the EC50 turn out when `Cc1cc(-c2cc(N)cc(Cl)c2Cl)ccn1` [compound 114, 3,4-dichloro-5-(2-methylpyridin-4-yl)aniline] was run?
The EC50 was 9.6 ± 0.7 µM.

For `Cc1cc(-c2cc(N)cc3[nH]ccc23)ccn1` [compound 115, 4-(2-methylpyridin-4-yl)-1H-indol-6-amine], which EC50 is on record?
The EC50 was 3.8 ± 0.7 µM.

How did the relative reporter activity (at 50 µM) turn out when `Cc1cc(-c2cc(N)c3cc[nH]c3c2)ccn1` [compound 116, 6-(2-methylpyridin-4-yl)-1H-indol-4-amine] was run?
The relative reporter activity was “inactive at 50 µM”.

Which EC50 does the source give for `Cc1cc(-c2cc(N)c3cn[nH]c3c2)ccn1` [compound 117] here?
Its EC50 is 7.9 ± 1.5 µM.

What about the relative reporter activity [1] of the same compound?
Its relative reporter activity is 0.31±0.03.
